Laboratory results published in PubChem BioAssay (NCI).
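A five-concentration, 48-hour dose response in 96-well plates underlies each endpoint, interpolated linearly between surrounding concentrations. At the TGI there is no net growth.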

Columns and labels:
Assay in all cases: inhibition of tumour cell growth, NCI panel, 48 h
[1] = test system: 786-0 renal
[2] = test system: A498 renal
[3] = test system: A549 NSCLC
[4] = test system: ACHN renal
[5] = test system: BT-549 breast
[6] = test system: CAKI-1 renal
[7] = test system: CCRF-CEM leukemia
[8] = test system: COLO 205 colon
[9] = test system: DU-145 prostate
[10] = test system: EKVX NSCLC
[11] = test system: HCC-2998 colon
[12] = test system: HCT-116 colon
[13] = test system: HCT-15 colon
[14] = test system: HL-60(TB) leukemia
[15] = test system: HOP-62 NSCLC
[16] = test system: HOP-92 NSCLC
[17] = test system: HS 578T breast
[18] = test system: HT29 colon
[19] = test system: IGROV1 ovarian
[20] = test system: K-562 leukemia
[21] = test system: KM12 colon
[22] = test system: M14 melanoma
[23] = test system: MALME-3M melanoma
[24] = test system: MCF7 breast
[25] = test system: MDA-MB-231 breast
[26] = test system: MDA-MB-435
[27] = test system: MDA-N
[28] = test system: MOLT-4 leukemia
[29] = test system: NCI-H226 lung
[30] = test system: NCI-H23 lung
[31] = test system: NCI-H460 lung
[32] = test system: NCI-H522 lung
[33] = test system: NCI/ADR-RES ovarian
[34] = test system: OVCAR-3 ovarian
[35] = test system: OVCAR-4 ovarian
[36] = test system: OVCAR-5 ovarian
[37] = test system: OVCAR-8 ovarian
[38] = test system: PC-3 prostate
[39] = test system: RPMI-8226 leukemia
[40] = test system: RXF 393 renal
[41] = test system: SF-268 CNS
[42] = test system: SF-295 CNS
[43] = test system: SF-539 CNS
[44] = test system: SK-MEL-2 melanoma
[45] = test system: SK-MEL-28 melanoma
[46] = test system: SK-MEL-5 melanoma
[47] = test system: SK-OV-3 ovarian
[48] = test system: SN12C renal
[49] = test system: SNB-19 CNS
[50] = test system: SNB-75 CNS
[51] = test system: SR leukemia
[52] = test system: SW-620 colon
[53] = test system: T-47D breast
[54] = test system: TK-10 renal
[55] = test system: U251 CNS
[56] = test system: UACC-257 melanoma
[57] = test system: UACC-62 melanoma
[58] = test system: UO-31 renal
[59] = test system: LOX IMVI melanoma

Measured: TGI

CN(C)CCNS(=O)(=O)c1ccc(N)cc1
31.9 µM: [44]
31 µM: [34]
32.4 µM: [15]
34 µM: [38]
not listed: [59]
> 100 µM: all other assays above

Cc1ccc(NC(=O)c2ccc(OP(=O)(O)Nc3ccc(C)cc3)cc2)cc1
> 100 µM: all assays above

COc1ncc(/C=C2\OC(=O)c3ccccc32)c(OC)n1
47.3 µM: [50]
58.7 µM: [46]
36.8 µM: [6]
66 µM: [15]
10.9 µM: [5]
not listed: [35] | [44] | [47] | [57]
> 100 µM: all other assays above

CC(=O)c1c2c(c3ccccc3c1O)O[C@@H]1OCC[C@H]21
34.2 µM: [50]
> 100 µM: all other assays above
